Assay results: patent US4756904A (Oak Ridge Associated Universities, Inc., priority 1986, dated 1988)

Tested on: myocardium
Protocol: Sixteen closed-chest studies were performed in 6 healthy, adult mongrel dogs of both sexes weighing 15 to 30 kg. The dogs were maintained on a standard laboratory diet which was discontinued 24 hours prior to study. The animals were anesthetized using a combination of xylazine and sodium pentobarbital. Transmission cross-sectional scans of the chest area were performed on each dog with an ECAT II scanner using a ^68 Ge ring source with medium resolution filters and standard shadow shields. Measured attenuation coefficients were used for reconstructing the emission tomographs. […] Serial scans of the heart from base to apex in 10-15 mm steps were made starting 3-5 minutes after injection. After each series was completed, the ECAT II bed was returned to the original position and the dogs were rescanned. This procedure was repeated over a 2 to 4 hour period. Each set of scans required approximately 1 hour for 6 slices, so that 2 to 4 sets of images were obtained in each study. Sequential images were also obtained through a 20-mm section of the heart over a 2-hour period. Additional images from 1 dog were obtained using the new high-resolution ECAT III scanner. […] The animals were injected through a cannula or catheter in the leg and heparanized venous blood samples were removed from the opposite side. Known aliquots of whole blood, plasma, and erythrocytes were assayed in a well-type scintillation counter to determine the ^64 Cu levels present in the different components.

copper-64 citrate [^64 Cu citrate]
image quality with the PET (^64 Cu citrate, PET): unexpectedly distinct image | useful images of the myocardium (dog): yields useful images of the myocardium | uptake by the myocardium (dog, intravenous, tomographic images): rapid and uniform uptake of the compound throughout the myocardium | uptake by myocardial tissue over time (dog, over the time periods studied): occurs quite rapidly and remains constant over the time periods studied | visibility of the left ventricle in the emission scan (dog, transverse section): very distinctly | visibility of the right ventricle in the emission scan (dog, transverse section): less clearly seen
